Values of other authors as cited in patent US20250340540A1, “Crystal Forms Of HS378 And Preparation Method Therefor” (priority 2022, published 2025).

System: novel coronavirus
Conditions: mouse, in vivo; cited from earlier work

SMILES: CC(C)(C)[C@H](NC(=O)C(F)(F)F)C(=O)N1C[C@H]2[C@@H]([C@H]1C(=O)N[C@H](C#N)C[C@@H]1CCNC1=O)C2(C)C [HS378, (1R, 2S, 5S)-N-{(1S)-1-cyano-2-[(3S)-2-oxopyrrolidin-3-yl]-ethyl}-6,6-dimethyl-3-[3-methyl-N-(trifluoroacetyl)-L-valyl]-3-azabicyclo [3.1.0]hexane-2-carboxamide]
- Oral activity: Oral activity was demonstrated
